From patent publication US20260364072A1, “METHODS FOR PROMOTING EXPANSION OF HUMAN CD34+ CELLS IN VIVO AND FOR PROMOTING NEURAL REGENERATION” (THE REGENTS OF THE UNIVERSITY OF CALIFORNIA, priority 2023, published 2026)

Columns and labels:
[1] = test system: MF HPC; test: Viability of high-risk MF CD34+ cells by flow cytometry; assay type: cell-based, human; conditions: 72 hr, compared with vehicle controls
Experimental: (FIG. 28B) Flow cytometry-based viable cell counts (5,000 events measured) in high-risk MF samples after in vitro treatment of primary CD34^+ cells with vehicle control (DMSO) or Rebecsinib (72 hr).
Human HS5 and HS27a^45 or mouse bone marrow cells lines SL (hSCF and hIL3) and M2 (hIL3 and hG-CSF) were irradiated and then mixed at a ratio of 1:1 and incubated overnight for attachment. CD34^+ were selected from high-risk MF and sAML primary samples using magnetic beads (Miltenyi Biotec, Germany). As a control, CD34^+ cells from aged normal bone marrow (aNBM), young normal BM (yNBM) and cord blood (All Cells Inc, Alameda, CA) mononuclear cells were utilized. To establish co-cultures, 10,000-15,000 CD34^+ cells were added to SLM2 stroma in 1 ml of MYELOCULT H5100™ (STEMCELL Technologies, Vancouver, Canada). Rebecsinib or DMSO control were added at the initiation of co-culture at indicated concentrations. After one week, cells that were both attached to stroma and floating were collected, resuspended in fresh media and plated in methylcellulose (MC) H4330™ (STEMCELL Technologies) in triplicate. After 2 weeks primary colonies (more than 40 cells) were counted and individual multilineage colonies were plucked, cells resuspended and re-plated again in fresh MC. Secondary colonies were counted after another 14 days. […]

[2] = test system: sAML LSC; test: Serial transplantation assays of sAML LSC; assay type: in vivo, human cells in mice
Experimental: To test this, we performed serial transplantation assays of cells harvested from sAML50261 LSC engrafted mice that were treated intravenously twice weekly for two weeks with Rebecsinib at 10 mg/kg (serial transplant recipients received no further treatment). […] Thus, reductions in ADAR1p150-mediated RNA editing activity following Rebecsinib treatment correspond with a reversion to a healthy splice isoform expression profile^14 in engrafted human progenitors.
In humanized mouse models, sAML cells (CD34^+) from two unique […] patient samples that were splicing factor mutated or unmutated were utilized, including sAML50261 and sAML2008-5.^14 For in vivo efficacy and therapeutic index studies, sAML CD34^+ cells, or normal human cord blood-derived or aged bone marrow-derived HSPCs (CD34^+), were transplanted (50,000-200,000 cells per mouse) intrahepatically into neonatal Rag2^−/−γc^−/− mice, or intravenously into adult NSG-SGM3 mice (Jackson Laboratories, Bar Harbor, ME). A subset of experiments was performed with normal aged bone marrow cells that were transduced with the lentiviral ADAR1 nanoluc-GFP reporter vector prior to transplant. For transplantation into adult mice, animals were irradiated with ^137Cs at a dose of 150 cGy 24 hr before IV transplantation. After engraftment levels reached >1% human CD45^+ hematopoietic cells in the peripheral blood, animals were distributed among treatment groups for treatment with Rebecsinib or vehicle control essentially as previously described, with an increased dosing regimen of twice weekly (versus once weekly in prior studies)^14 and an optimized in vivo formulation (2% w/w EtOH, 5% w/v KOLLIPHOR HS™ 15 in 0.9% saline). For animals that received transplants of cells transduced with the lentiviral ADAR1 nanoluc-GFP reporter, mice were imaged 15 weeks after transplant on the IVIS 200, as previously described.^79 Following treatment with Rebecsinib (five intravenous doses total over a two-week period), hematopoietic tissues (peripheral blood, bone marrow, spleens) were collected and analyzed by flow cytometry as previously described.^14 For splice isoform-specific qRT-PCR or RNA-seq analyses on cells from in vivo studies, human CD34^+ LSC from bone marrows and spleens of engrafted mice were isolated by magnetic bead separation (Miltenyi Biotec).
Additional aliquots of CD34+ cells from bone marrow and/or spleens of treated and control animals were used for serial transplantation assays after Rebecsinib treatment, including engraftment studies and overall survival assays. In a separate cohort of animals, mice were treated with Fedratinib for two weeks (twice daily oral delivery at 60 mg/kg) as a positive control for modulation of ADAR1 expression and activity.^8

[3] = test system: SF3B3; test: SF3B3 splice biomarker analysis in human CD45+ cells from normal HSPC engrafted mice; assay type: in vivo
Excerpt: After completion of treatment and engraftment analyses of in vivo normal HSPC assays, total human hematopoietic cells (CD45^+) were selected for splice biomarker analyses to determine sensitivity of normal human hematopoietic cells to Rebecsinib compared with sAML LSC.
For quantitative analysis of splice isoform expression, RNA editing rates, and whole gene expression by qRT-PCR, cells or tissue fragments were harvested in RNA lysis buffer and total RNA was extracted using RNeasy mini or micro extraction kits (QIAGEN, Germantown, MD) following the manufacturer's protocol including a DNase incubation step to digest any trace genomic DNA present. Levels of ADAR1 variants and LSC-specific transcripts were quantified by qRT-PCR as previously described.^14 RNA-editing site-specific qRT-PCR (RESSqPCR) was performed for variants in AZIN1 transcripts.^53 Additional species-specific primers were also designed to quantify intron retention rates in cells treated with Rebecsinib as a biomarker of response to RNA splicing modulation. Specifically, for the two-step SYBR-green based assays, as previously described,^7,14,53 100-1000 ng of RNA were subjected to cDNA synthesis using the SUPERSCRIPT III™ (ThermoFisher Scientific) kit followed by qRT-PCR using SYBR GreenER (ThermoFisher Scientific) master mix according to the manufacturer's recommended procedures. qRT-PCR was performed using SYBR GREENER SUPER MIX™ (Life Technologies) on BioRad iQ5™, C1000 TOUCH™, or BioRad CFX384™ instruments. Human splice isoform-specific, RNA editing site-specific qPCR (RESSqPCR)^53. Primer sets that have not been previously published were designed and tested for efficiency followed by analyses in samples exposed to Rebecsinib, with species-specific HPRT primers used as controls. Samples with Ct<35 for the species-specific reference gene, HPRT, were included in analyses. Relative mRNA expression values were calculated using the 2^−ΔCT method, with normalization to untreated or vehicle-treated controls.^54 […]

[4] = test system: normal aged HSPC; test: ADAR1 nanoluc-GFP aged normal bone marrow CD34+ engrafted mice; assay type: in vivo, human cells in immunocompromised mice; conditions: 10 mg/kg
Excerpt: To further test the utility of the ADAR1 nanoluc-GFP reporter for in vivo detection of endogenous ADAR1 activity, primary human aged normal bone marrow CD34^+ cells were transduced with the reporter vector and transplanted into immunocompromised mice. ADAR1 activity was detected by live animal bioluminescence imaging and corresponded with human cell engraftment detection by flow cytometry.
In humanized mouse models, sAML cells (CD34^+) from two unique […] patient samples that were splicing factor mutated or unmutated were utilized, including sAML50261 and sAML2008-5.^14 For in vivo efficacy and therapeutic index studies, sAML CD34^+ cells, or normal human cord blood-derived or aged bone marrow-derived HSPCs (CD34^+), were transplanted (50,000-200,000 cells per mouse) intrahepatically into neonatal Rag2^−/−γc^−/− mice, or intravenously into adult NSG-SGM3 mice (Jackson Laboratories, Bar Harbor, ME). A subset of experiments was performed with normal aged bone marrow cells that were transduced with the lentiviral ADAR1 nanoluc-GFP reporter vector prior to transplant. For transplantation into adult mice, animals were irradiated with ^137Cs at a dose of 150 cGy 24 hr before IV transplantation. […]

CC[C@H](OC)[C@@H](C)[C@H]1O[C@@H]1[C@@H](O)[C@H](C)/C=C/C=C(\C)[C@H]1OC(=O)C[C@H](O)CC[C@@](C)(O)[C@@H](OC(C)=O)/C=C/[C@@H]1C [Rebecsinib]
MF HPC viability [1]: decreased MF HPC viability | ADAR-208 expression after serial transplantation compared with ADAR1p110 ([2]; CD34+ cells from serial transplant recipients, RNA-seq): sustained reductions in expression | frequency of hematopoietic progenitors (CD34+CD38+Lin-) in spleens of serial transplant recipients ([2]; sAML50261, 10 mg/kg intravenously twice weekly for two weeks (primary mice)): reduced frequency of hematopoietic progenitors | LSC self-renewal on serial transplantation ([2]; splicing factor mutated sAML (2008-5)): significantly reduced LSC self-renewal | overall survival of serial transplant recipients ([2]; splicing factor unmutated sAML 50261): significant improvement in overall survival | SF3B3 intron retention in bone marrow ([3]; normal human CD45+ cells): no changes in SF3B3 intron retention | SF3B3 intron retention in spleen ([3]; normal human CD45+ cells): trend toward changes in the spleen that were not statistically significant | sensitivity of sAML LSC to splicing modulation versus normal HSPCs ([3]; therapeutic index, humanized mouse models): sAML LSC are significantly more sensitive to splicing modulation than normal HSPCs | human HSPC engraftment and mature T or B cell maturation [4]: no loss of human HSPC engraftment or mature T or B cell maturation | frequency of normal CD34+ cells in bone marrow ([4]; in comparison to cord blood transplantation models): appeared to be increased
